Assay results published in US10844044B2 (Vanderbilt University, priority 2018, dated 2020).

Columns and labels:
WDR5 = WDR5 (Homo sapiens (Human), UniProt P61964); test: TR-FRET binding assay (displacement of 10mer-Thr-FAM probe from WDR5); conditions: read-out: Ki for Inhibition of WDR5 by TR-FRET assay; TR-FRET, 10mer-Thr-FAM probe, WDR5-His tag 2 nM, pH 7.0
[1] = tested on: MV4:11 human cancer cell lines; test: Anti-proliferative activity, CellTiter-Glo viability assay, 7 day protocol; format: cell-based; conditions: Homo sapiens, MV4-11, 168 h, MV4:11 cells, 7 day incubation, read-out: GI50 on cellular proliferation of MV4:11 human cancer cell lines
How it was run: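 MV4:11 cells seeded at 3600 cells/ml and exposed to compounds for 7 days, 0.1% DMSO final. Viability measured by CellTiter-Glo luminescence. GI50 from three biological replicates, each in technical triplicate, given as mean ± S.E.M.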

Row | SMILES | Ki (WDR5) [nM] | GI50 [1] [nM]
1 | Cc1cc([C@@H](NC(=O)c2cc(Cn3cccc(F)c3=N)cc(-c3cn(C)nc3C(F)(F)F)c2)C2CC2)ccc1F [Example 351, (S)—N-(Cyclopropyl(4-fluoro-3-methylphenyl)methyl)-3-((3-fluoro-2-iminopyridin-1(2H)-yl)methyl)-5-(1-methyl-3-(trifluoromethyl)-1H-pyrazol-4-yl)benzamide] | < 0.1 | < 100
2 | Cc1cc([C@@H](NC(=O)c2cc(Cn3ccn(C)c3=N)cc(-c3cn(C)nc3C(F)(F)F)c2)C2CC2)ncc1F [Example 205, (S)—N-(Cyclopropyl(5-fluoro-4-methylpyridin-2-yl)methyl)-3-((2-imino-3-methyl-2,3-dihydro-1H-imidazol-1-yl)methyl)-5-(1-methyl-3-(trifluoromethyl)-1H-pyrazol-4-yl)benzamide] | < 0.1 | < 100
